Assay [1] has as its target Adenosine receptor A1 (Mesocricetus auratus). Kind of assay: Agonist activity at adenosine A1 receptor assessed as inhibition of isoproterenol-stimulated cAMP accumulation in DDT1MF-2 cells. Background: Changes in cAMP serve as a functional read-out for many G protein-coupled receptors.
Assay [2] concerns Adenosine receptor A1 (Mesocricetus auratus). The assay is described as follows: Ratio of Ki to IC50 for adenosine A1 receptor.
Assay [3] shares this test system. The assay is described as follows: Intrinsic activity at adenosine A1 receptor assessed as maximal inhibition of isoproterenol-stimulated cAMP accumulation in DDT1MF-2 cells relative to CPA.
The target in assay [4] is Adenosine receptor A1 (Mesocricetus auratus). The assay is described as follows: Displacement of [3H]CPX from adenosine A1 receptor in DDT1MF-2 cells. (In general: Displacement assays read how much labelled ligand stays bound in the presence of the test substance.)

On to `O[C@@H]1[C@H](O)[C@@H](CF)O[C@H]1n1cnc2c(N[C@H]3C[C@H]4CC[C@H]3C4)ncnc21`, for which, in assay [1], the IC50 (in general, the concentration at which inhibition is half-maximal) was found to be 0.007 µM. In addition, the Ratio in assay [2] was 1.3. Further, the Intrinsic activity in assay [3] was found to be 0.97. Further, the Ki (as a rule, the dissociation constant of the complex between target and ligand, obtained from inhibition or displacement) in assay [4] came to 0.017 µM.
For `CC(=O)NC[C@H]1O[C@@H](n2cnc3c(N[C@H]4C[C@H]5CC[C@H]4C5)ncnc32)[C@H](O)[C@@H]1O`, the half-inhibitory concentration (IC50) in assay [1] amounted to 0.605 µM. For the same compound, the Ratio in assay [2] worked out at 1.3. The Intrinsic activity in assay [3] is 0.97. The Ki in assay [4] turned out to be 5.87 µM.
Take `NC[C@H]1O[C@@H](n2cnc3c(N[C@H]4C[C@H]5CC[C@H]4C5)ncnc32)[C@H](O)[C@@H]1O`: in assay [1], the IC50 was 0.351 µM. Besides, the Ratio in assay [2] was 1.3. The Intrinsic activity in assay [3] was 0.92. The compound further displayed a Ki in assay [4] of 3.93 µM.
For `CCNC(=O)[C@H]1O[C@@H](n2cnc3c(N[C@H]4C[C@@H]5C[C@@H]4C4SC45)ncnc32)[C@H](O)[C@@H]1O` (stereo partly drawn), in that order: 0.00012 µM, 1.3, 0.98 and 0.0009 µM.
In the case of `CNC[C@H]1O[C@@H](n2cnc3c(N[C@H]4C[C@H]5CC[C@H]4C5)ncnc32)[C@H](O)[C@@H]1O`, the IC50 in assay [1] worked out at 0.867 µM. In addition, in assay [2], the Ratio was 1.3. Moreover, the Intrinsic activity in assay [3] came to 0.83. This compound came in with a Ki in assay [4] of over 10 µM.
In the case of `CNC(=O)O[C@H]1O[C@@H](n2cnc3c(N[C@H]4C[C@@H]5C[C@@H]4C4SC45)ncnc32)[C@H](O)[C@@H]1O` (stereo partly drawn), the IC50 in assay [1] was 0.41 µM. Moreover, the Ratio in assay [2] was determined as 1.3. Also, in assay [3], the Intrinsic activity was determined as 1.03. In assay [4], this compound came in with a Ki of 0.59 µM.
Consider `CCSC[C@H]1O[C@@H](n2cnc3c(N[C@H]4C[C@H]5CC[C@H]4C5)ncnc32)[C@H](O)[C@@H]1O`, for which the IC50 in assay [1] amounted to 0.028 µM. The Ratio in assay [2] stood at 1.3. Moreover, in assay [3], the Intrinsic activity came out at 1.04. In assay [4], this compound came in with a Ki of 0.122 µM.
For the compound `CCSC[C@H]1O[C@@H](n2cnc3c(NC4CCCC4)ncnc32)[C@H](O)[C@@H]1O`, the IC50 in assay [1] was found to be 0.021 µM. Moreover, the Intrinsic activity in assay [3] is 1.02. This compound gave a Ki in assay [4] of 0.173 µM.
Regarding `C[Se]C[C@H]1O[C@@H](n2cnc3c(N[C@H]4C[C@@H]5C[C@@H]4C4SC45)ncnc32)[C@H](O)[C@@H]1O` (stereo partly drawn), the IC50 in assay [1] was found to be 0.012 µM. Moreover, in assay [2], the Ratio is 1.3. The Intrinsic activity in assay [3] turned out to be 0.96. The compound also showed a Ki in assay [4] of 0.03 µM.
Consider `CCCNC[C@H]1O[C@@H](n2cnc3c(N[C@H]4C[C@H]5CC[C@H]4C5)ncnc32)[C@H](O)[C@@H]1O`, for which, in assay [1], the IC50 is 4.95 µM. For the same compound, in assay [2], the Ratio was 1.3. The Intrinsic activity in assay [3] came out at 0.91. Moreover, the Ki in assay [4] is 7.2 µM.
For the compound `O[C@@H]1[C@H](O)[C@@H](CS)O[C@H]1n1cnc2c(N[C@H]3C[C@H]4CC[C@H]3C4)ncnc21`, in assay [1], the IC50 is 0.224 µM. In assay [2], the Ratio was 1.3. Moreover, in assay [3], the Intrinsic activity is 1. In addition, the Ki in assay [4] worked out at 0.283 µM.

(Values after ChEMBL document CHEMBL1144002, “N6-substituted C5'-modified adenosines as A1 adenosine receptor agonists” (Bioorg Med Chem, 2008).)
